The source of these data is patent US20100003246A1, “Novel heterocyclic compounds and uses therof” (priority 2008, published 2010).

The target of the test is T1, b-Raf(V600E) (Homo sapiens, UniProt P15056, V600E).
T1 construct: made in house
T1 sequence (P15056 whole entry V600E): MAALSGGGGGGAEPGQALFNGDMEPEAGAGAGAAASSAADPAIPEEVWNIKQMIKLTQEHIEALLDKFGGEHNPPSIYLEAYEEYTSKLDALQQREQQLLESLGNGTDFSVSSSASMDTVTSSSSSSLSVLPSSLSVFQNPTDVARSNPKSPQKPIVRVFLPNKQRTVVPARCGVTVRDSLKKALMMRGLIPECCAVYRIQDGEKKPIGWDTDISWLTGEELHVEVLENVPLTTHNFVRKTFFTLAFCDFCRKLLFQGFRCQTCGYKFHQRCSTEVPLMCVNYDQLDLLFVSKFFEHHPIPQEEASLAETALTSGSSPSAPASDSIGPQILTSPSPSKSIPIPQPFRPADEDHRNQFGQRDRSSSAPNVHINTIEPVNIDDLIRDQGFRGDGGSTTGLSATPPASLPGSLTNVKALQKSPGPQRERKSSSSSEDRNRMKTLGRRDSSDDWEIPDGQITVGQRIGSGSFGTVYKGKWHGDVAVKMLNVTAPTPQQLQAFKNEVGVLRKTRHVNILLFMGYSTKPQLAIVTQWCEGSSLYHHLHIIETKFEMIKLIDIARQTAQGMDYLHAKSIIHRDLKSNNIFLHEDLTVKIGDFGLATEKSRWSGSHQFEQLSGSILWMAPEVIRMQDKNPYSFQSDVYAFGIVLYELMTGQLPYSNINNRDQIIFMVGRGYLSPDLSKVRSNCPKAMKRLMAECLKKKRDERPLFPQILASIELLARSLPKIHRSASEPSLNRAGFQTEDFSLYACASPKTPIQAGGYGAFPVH
Description: Raf/Mek Amplified Luminescence Proximity Homogeneous Assay (Alpha Screen), b-Raf(V600E). In kind it is biochemical. Conditions: mutant b-Raf(V600E), read-out: mut-b-RAF (IC50 in uM). The procedure, abridged: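 Active b-Raf(V600E) (~4 pM) pre-incubated 60 min at room temperature with compound and kinase-dead biotinylated Mek (~10 nM) in Tris pH 7.5, MgCl2, BSA, DTT; ATP-started reaction ran 3 h, EDTA-stopped. Phospho-MEK detected by anti-p-MEK AlphaScreen luminescence; IC50 by non-linear regression.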
As a reminder, the IC50 is the concentration that inhibits the measured activity by half. In the case of `COCC(=O)NCCNc1nccc(-c2nc(-c3ccc(F)cc3)[nH]c2-c2cnc3[nH]cc(Br)c3c2)n1` [Compound 166, N-(2-(4-(5-(3-bromo-1H-pyrrolo[2,3-b]pyridin-5-yl)-2-(4-fluorophenyl)-1H-imidazol-4-yl)pyrimidin-2-ylamino)ethyl)-2-methoxyacetamide], the half-inhibitory concentration (IC50) was determined as 0.0001 µM.
Turning to `COc1cc(-c2[nH]c(-c3ccc4[nH]ncc4c3)nc2-c2ccncc2)cnc1N` [Compound 167, 5-(2-(1H-indazol-5-yl)-4-(pyridin-4-yl)-1H-imidazol-5-yl)-3-methoxypyridin-2-amine], the IC50 was 0.0007 µM.
For `COc1cc(-c2[nH]c(-c3cccc4cccnc34)nc2-c2ccncc2)cnc1N` [Compound 168], the IC50 came to 0.0009 µM.
As to `COc1cc(-c2[nH]c(-c3cccc4ncccc34)nc2-c2ccncc2)cnc1N` [Compound 169, 3-methoxy-5-(4-(pyridin-4-yl)-2-(quinolin-5-yl)-1H-imidazol-5-yl)pyridin-2-amine], the 50% inhibitory concentration (IC50) turned out to be 0.0016 µM.
In the case of `COc1cc(-c2[nH]c(-c3cccc(-c4ccncc4)c3)nc2-c2ccncc2)cnc1N` [Compound 170, 3-methoxy-5-(4-(pyridin-4-yl)-2-(3-(pyridin-4-yl)phenyl)-1H-imidazol-5-yl)pyridin-2-amine] it was 0.0002 µM; in that of `COc1cc(-c2nc(-c3ccc(F)cc3)[nH]c2-c2ccnc(Nc3cccc(C(F)(F)F)c3)n2)cnc1N` [Compound 171, 4-(4-(6-amino-5-methoxypyridin-3-yl)-2-(4-fluorophenyl)-1H-imidazol-5-yl)-N-(3-(trifluoromethyl)phenyl) pyrimidin-2-amine], 0.0013 µM; in that of `COc1cc(-c2nc(-c3ccc(F)cc3)[nH]c2-c2ccnc(Nc3cccc(F)c3)n2)cnc1N` [Compound 172, 4-(4-(6-amino-5-methoxypyridin-3-yl)-2-(4-fluorophenyl)-1H-imidazol-5-yl)-N-(3-fluorophenyl)pyrimidin-2-amine], 0.0014 µM.
In the case of `COc1cc(-c2nc(-c3ccc(F)cc3)[nH]c2-c2ccnc(C#N)c2)cnc1N` [Compound 173, 4-(4-(6-amino-5-methoxypyridin-3-yl)-2-(4-fluorophenyl)-1H-imidazol-5-yl)picolinonitrile] it was 0.197 µM.
Take `CCNc1nccc(-c2nc(-c3ccc(F)cc3)[nH]c2-c2cnc(N)c(OC)c2)n1` [Compound 174, 4-(5-(6-amino-5-methoxypyridin-3-yl)-2-(4-fluorophenyl)-1H-imidazol-4-yl)-N-ethylpyrimidin-2-amine]: the IC50 came out at 0.0023 µM.
Turning to `CCCNc1nccc(-c2nc(-c3ccc(F)cc3)[nH]c2-c2cnc(N)c(OC)c2)n1` [Compound 175, 4-(5-(6-amino-5-methoxypyridin-3-yl)-2-(4-fluorophenyl)-1H-imidazol-4-yl)-N-propylpyrimidin-2-amine], the IC50 worked out at 0.0012 µM.
Regarding `CC[C@H](C)Nc1nccc(-c2nc(-c3ccc(F)cc3)[nH]c2-c2cnc(N)c(OC)c2)n1` [Compound 176, (S)-4-(5-(6-amino-5-methoxypyridin-3-yl)-2-(4-fluorophenyl)-1H-imidazol-4-yl)-N-sec-butylpyrimidin-2-amine], the 50% inhibitory concentration (IC50) was determined as 0.0046 µM.
As for `CC(=O)c1cc(-c2[nH]c(-c3ccc(F)cc3)nc2-c2ccncc2)cnc1N` [Compound 177, 1-(2-amino-5-(2-(4-fluorophenyl)-4-(pyridin-4-yl)-1H-imidazol-5-yl)pyridin-3-yl)ethanone], the IC50 turned out to be 0.003 µM.
For the molecule `COc1cc(-c2[nH]c(-c3ccc4[nH]ccc4c3)nc2-c2ccncc2)cnc1N` [Compound 178, 5-(2-(1H-indol-5-yl)-4-(pyridin-4-yl)-1H-imidazol-5-yl)-3-methoxypyridin-2-amine], the IC50 worked out at 0.0009 µM.
For `COCCCNc1nccc(-c2nc(-c3ccc(F)cc3)[nH]c2-c2cnc(N)c(OC)c2)n1` [Compound 179, 4-(5-(6-amino-5-methoxypyridin-3-yl)-2-(4-fluorophenyl)-1H-imidazol-4-yl)-N-(3-methoxypropyl)pyrimidin-2-amine], the IC50 was 0.001 µM.
As to `COc1cc(-c2[nH]c(-c3ccc(F)cc3)nc2-c2ccnc(O)n2)cnc1N` [Compound 180, 4-(5-(6-amino-5-methoxypyridin-3-yl)-2-(4-fluorophenyl)-1H-imidazol-4-yl)pyrimidin-2-ol], the IC50 came out at 0.892 µM.
`CC[C@@H](C)Nc1nccc(-c2nc(-c3ccc(F)cc3)[nH]c2-c2cnc(N)c(OC)c2)n1` [Compound 181, (R)-4-(5-(6-amino-5-methoxypyridin-3-yl)-2-(4-fluorophenyl)-1H-imidazol-4-yl)-N-sec-butylpyrimidin-2-amine]: the IC50 was found to be 0.0099 µM.
As for `Cc1c[nH]c2ncc(-c3[nH]c(-c4ccc(F)cc4)nc3-c3ccncc3)cc12` [Compound 182, 5-(2-(4-fluorophenyl)-4-(pyridin-4-yl)-1H-imidazol-5-yl)-3-methyl-1H-pyrrolo[2,3-b]pyridine], the IC50 came to 0.0002 µM.
As for `COc1cc(-c2[nH]c(-c3ccc(F)cc3)nc2-c2ccnc(NCC3CC3)n2)cnc1N` [Compound 183, 4-(5-(6-amino-5-methoxypyridin-3-yl)-2-(4-fluorophenyl)-1H-imidazol-4-yl)-N-(cyclopropylmethyl) pyrimidin-2-amine], the figure is 0.0007 µM; as for `COc1cc(-c2nc(C(C)(C)C)[nH]c2-c2ccnc(Nc3ccc(N4C[C@@H](C)O[C@@H](C)C4)nc3)n2)cnc1N` [Compound 184, 4-(4-(6-amino-5-methoxypyridin-3-yl)-2-tert-butyl-1H-imidazol-5-yl)-N-(6-((2R,6S)-2,6-dimethylmorpholino)-pyridin-3-yl)pyrimidin-2-amine], 0.0003 µM; as for `COc1cc(-c2nc(C(C)(C)C)[nH]c2-c2ccnc(N[C@@H]3CCN(C(C)=O)C3)n2)cnc1N` [Compound 185, (R)-1-(3-(4-(4-(6-amino-5-methoxypyridin-3-yl)-2-tert-butyl-1H-imidazol-5-yl)pyrimidin-2-ylamino)pyrrolidin-1-yl)ethanone], 0.0032 µM.
As for `COc1cc(-c2nccc(-c3[nH]c(C(C)(C)C)nc3-c3cnc(N)c(OC)c3)n2)cnc1N` [Compound 186, 5-(4-(4-(6-amino-5-methoxypyridin-3-yl)-2-tert-butyl-1H-imidazol-5-yl)pyrimidin-2-yl)-3-methoxypyridin-2-amine], the 50% inhibitory concentration (IC50) was 0.0299 µM.
For `COc1cc(-c2[nH]c(-c3ccc(F)cc3)nc2-c2ccnc(Nc3ccc(N4C[C@@H](C)O[C@@H](C)C4)nc3)n2)cnc1N` [Compound 187, 4-(5-(6-amino-5-methoxypyridin-3-yl)-2-(4-fluorophenyl)-1H-imidazol-4-yl)-N-(6-((2S,6R)-2,6-dimethylmorpholino)-pyridin-3-yl)pyrimidin-2-amine], the IC50 amounted to 0.0005 µM.
Take `COc1cc(-c2nc(C(C)(C)C)[nH]c2-c2ccnc(Nc3ccc4c(c3)OC(F)(F)O4)n2)cnc1N` [Compound 189, 4-(4-(6-amino-5-methoxypyridin-3-yl)-2-tert-butyl-1H-imidazol-5-yl)-N-(2,2-difluorobenzo[d][1,3]dioxol-5-yl)pyrimidin-2-amine]: the IC50 turned out to be 0.0003 µM.
For `COc1cc(-c2nc(C(C)(C)C)[nH]c2-c2ccnc(Nc3cccc(OC(F)(F)F)c3)n2)cnc1N` [Compound 190, 4-(4-(6-amino-5-methoxypyridin-3-yl)-2-tert-butyl-1H-imidazol-5-yl)-N-(3-(trifluoromethoxy)phenyl) pyrimidin-2-amine], the IC50 was determined as 0.0003 µM.
